Laboratory results published in patent publication US20260216057A1, “PHARMACEUTICAL COMPOSITIONS FOR HERPES VIRUS” (priority 2022, published 2026).

Legend:
[1] = Example 12: Compound 1 (Form A) aqueous suspension SC PK study in dog; format: in vivo, male non-naïve Beagle dogs; conditions: 10 mg/kg, following an initial drug burst
Method: An aqueous suspension of Compound 1 free form (Form A) in a 0.9% NaCl+0.5% poloxamer 188 vehicle at a concentration of 5.0 mg/mL was prepared as follows: • 1) Vehicle (0.9% w/w NaCl and 0.5% w/w poloxamer 188) was prepared by dissolving NaCl and poloxamer 188 in water. • 2) Appropriate amount of Compound 1 free form was weighed and added to the vehicle. • 3) The mixture was stirred for 15 minutes, then vortexed for 1 minute and then sonicated for 10 minutes. • 4) The final dosing formulation was a homogenous white cloudy suspension.
Male non-naïve beagles with ~10 kg body weight were used for the dog PK study. The animals had free access to food and water. The prepared suspension was administered via subcutaneous injection to each animal group (n=3) with a dosing volume of 2 mL/kg to achieve a 10 mg/kg dose.
At each time point, approximately 0.5 mL of whole blood was collected into K2EDTA tubes. Blood samples were put on ice and centrifuged at 2000 g for 5 min to obtain plasma samples within 15 minutes. Plasma samples were stored at approximately −70° C. until analyzed by LC-MS.

[2] = Example 7: Compound 1 aqueous suspension SC PK study in rat; format: in vivo, male Sprague Dawley rats; conditions: aqueous suspension (Form A), 10 mg/kg
Method: The LC-MS methodology and conditions used to analyse the helicase-primase inhibitor Compound 1 in plasma samples from the sub-cutaneous injection PK studies (Examples 7 and 10-12) are described in Table 3 and Table 4. An aqueous suspension of crystalline Compound 1 (Form A) was prepared in a 0.9% NaCl+0.5% polysorbate 80 vehicle at a concentration of 3.0 mg/mL as described in Example 2. The suspension was then dosed to male SD rats at 10 mg/kg according to the Example 2 animal dosing method.

[3] = Example 13: Compound 1 IV PK study in monkey; format: in vivo, male cynomolgus monkeys; conditions: male, cynomolgus, plasma, 0.25 mg/kg, read-out: Monkey t1/2 (converted)
Method: The LC-MS methodology and conditions used to analyse Compound 1 in plasma samples from the intra-venous injection PK studies (Example 13) are described in Tables 5 to 7. A 0.25 mg/mL solution of Compound 1 in 10% DMSO, 10% Solutol HS15 and 80% Saline was prepared as follows: • 1) A stock solution of Compound 1 in DMSO was prepared. • 2) An equal volume of the Compound 1 stock solution and Solutol HS15 were combined and mixed. • 3) The above solution was diluted with normal saline to reach the target concentration. The final formulation was a clear solution. Male non-naïve Cyno Monkeys with were used for the monkey PK study. The animals had free access to food and water. The prepared solution was administered via intravenous injection to each animal group (n=3) to achieve a 0.25 mg/kg dose. At each time point, approximately 0.5 mL whole blood was collected into K2EDTA tubes. Blood samples were put on to ice and centrifuged at 2000 g for 5 min to obtain plasma sample within 15 minutes. Plasma samples were stored at approximately −70° C. until analyzed by LC-MS.

[4] = Injection site observation in pritelivir PK studies (Examples 1-4); format: in vivo, rat, monkey, dog; conditions: SC pritelivir depot formulations, Examples 1-4, 3 species
Method: Male Sprague Dawley (SD) rats with ~300 g body weight (ages 6-8 weeks) were used for the pharmacokinetic study. The animals had free access to food and water. The pritelivir suspensions described above were administered via sub-cutaneous injection to each animal group (n=3) with a dosing volume of 3.33 mL/kg to achieve 33.33 mg/kg and 166.67 mg/kg doses.
Male SD rats with 230-250 g body weight, ages 6-8 weeks were used for the rat PK study. The animals had free access to food and water. The prepared suspension was administered via subcutaneous injection to each animal group (n=3) with a dosing volume of 3.33 mL/kg to achieve a 10 mg/kg dose.
(§1) Male non-naïve Cyno Monkeys with −5 kg body weight was used for the monkey PK study. The animals had free access to food and water. The prepared suspension was administered via subcutaneous injection to each animal group (n=3) with a dosing volume of 3.33 mL/kg to achieve a 10 mg/kg dose.
Male non-naïve beagles were used for the dog PK study. The animals had free access to food and water. The prepared suspension was administered via subcutaneous injection to each animal group (n=3) with a dosing volume of 2 mL/kg to achieve a 10 mg/kg dose.

Plasma protein binding = format: in vitro ADME; conditions: read-out: free fraction of the total plasma concentration
HSV-2 = conditions: Field et al. (2013); read-out: in-vitro EC50 against HSV-2; cited from earlier work
plasma protein = conditions: cited from earlier work
[5] = Example 3: pritelivir aqueous suspension SC PK study in monkey; format: in vivo, male cynomolgus monkeys; conditions: aqueous suspension (dihydrate), 10 mg/kg
Method: The LC-MS methodology and conditions used to analyse pritelivir in plasma samples from the PK studies described in Examples 1 to 5 are provided in Table 1.
An aqueous suspension of crystalline pritelivir free base (dihydrate) in a 0.9% NaCl+0.5% polysorbate 80 vehicle at a concentration of 3.0 mg/mL was prepared as follows: • 1) Vehicle (0.9% w/w NaCl and 0.5% w/w polysorbate 80) was prepared by dissolving NaCl and polysorbate 80 in water. • 2) Appropriate amount of crystalline pritelivir free base (dihydrate) was weighed and added to the vehicle. • 3) Mixture was stirred for 15 minutes, then vortexed for 1 minute and then sonicated for 10 minutes. • 4) The final dosing formulation was a homogenous white cloudy suspension.
as §1
At each time point, approximately 0.5 mL whole blood was collected via the cephalic vein into K2EDTA tubes. Blood samples were put on to ice and centrifuged at 2000 g for 5 min to obtain plasma sample within 15 minutes. Plasma samples were stored at approximately −70° C. until analyzed by LC-MS.

Row | prolonged exposure out to [1] | prolonged exposure out to (length of the study) [2] | half-life [3] [h] | fraction unbound (Plasma protein binding) | prolonged exposure out to (length of the study) [5] | Structure (SMILES) | adverse reactions at the injection sites [4] | EC50 (HSV-2) [nM] | protein binding (plasma protein)
1 | at least 220 days | at least 144 hours | 49.6 |  |  | Cc1nc(N2CCCN(c3ccc(-c4cc(F)ccc4F)cc3)C2=O)sc1S(N)(=O)=O [Compound 1, 2-(3-(2′,5′-difluoro-[1,1′-biphenyl]-4-yl)-2-oxotetrahydropyrimidin-1(2H)-yl)-4-methylthiazole-5-sulfonamide] |  |  | 
2 |  |  |  | 0.02 to 0.03 | at least 456 hours | Cc1nc(N(C)C(=O)Cc2ccc(-c3ccccn3)cc2)sc1S(N)(=O)=O [pritelivir, N-methyl-N-(4-methyl-5-sulfamoyl-1,3-thiazol-2-yl)-2-[4-(pyridin-2-yl)phenyl]acetamide] | no adverse reactions observed | 29 | 97-98%
